Assay results reported in patent US10544154B2, “Opioid receptor antagonist prodrugs” (Nirsum Laboratories, Inc., priority 2017, dated 2020).

Legend:
[1] = Liver S9 fraction stability, human; type: in vitro ADME; details: 2 μM, 1.0 mg/ml S9 protein, 37° C.
Experimental: (§1) Liver S9 fraction stability determination of the test compounds in dog, cynomolgus monkey and human is performed using HPLC-MS. Test compound (2 μM, 0.1% DMSO, 1% Methanol final concentration) was assessed for stability in a 50 μl phosphate buffer containing 1.0 mg/ml S9 protein from each of the three species and 5 mM D-saccharic acid-1, 4-lactone. Samples were incubated at 37° C. for 60 minutes and the % compound remaining was assessed.

[2] = Plasma stability, dog plasma (HPLC-MS); type: in vitro ADME; details: 2 μM, 37° C.
Experimental: Plasma stability determination of the test compounds in rat, dog, cynomolgus monkey and human plasma is performed using HPLC-MS. For rat, incubations are carried out in 96-well polypropylene plates in 5 aliquots of 70 μL each (one for each time point). […] Five time points are analyzed (0, 15, 120, 480 and 1440 min). For dog, monkey and human, test compounds (2 μM, final solvent concentration 1%) were also incubated at 37° C. and analyzed at five time points (0, 10, 30, 60 and 120 min). All incubations are performed in duplicates. The samples are analyzed by HPLC-MS. The percentage of parent compound remaining after incubation in plasma is determined.

[3] = Plasma stability, human plasma (HPLC-MS); type: in vitro ADME; details: 2 μM, 37° C.
Experimental: (§2) Plasma stability determination of the test compounds in rat, dog, cynomolgus monkey and human plasma is performed using HPLC-MS. For rat, incubations are carried out in 96-well polypropylene plates in 5 aliquots of 70 μL each (one for each time point). […] Five time points are analyzed (0, 15, 120, 480 and 1440 min). […] All incubations are performed in duplicates. The samples are analyzed by HPLC-MS. The percentage of parent compound remaining after incubation in plasma is determined.

[4] = Plasma stability, cynomolgus monkey plasma (HPLC-MS); type: in vitro ADME; details: 2 μM, 37° C., 0 min
Experimental: as §2

[5] = Liver S9 fraction stability, dog; type: in vitro ADME; details: 2 μM, 1.0 mg/ml S9 protein, 37° C.
Experimental: as §1

[6] = Plasma stability, rat plasma (HPLC-MS); type: in vitro ADME; details: 10 μM, 37° C.
How it was run: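 Compound is added to plasma (dog, monkey, human: 2 μM final, 1% solvent) and held at 37 °C, with aliquots taken at 0, 10, 30, 60 and 120 min; rat samples are taken at 0, 15, 120, 480 and 1440 min. Parent remaining (%) is then determined by HPLC-MS.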

[7] = Clinical observations for dogs in pharmacokinetic studies; type: in vivo, Beagle dogs; details: 48 mg/kg DeepIM
How it was run: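 Dogs sedated with propofol 6 mg/kg IV, then given deep IM injection (≥2.5 cm into quadriceps or biceps femoris) of 400 mg base equivalents/ml in sesame oil + 1% benzyl alcohol, unless otherwise specified; vehicle injected contralaterally. Dose volume set by dosing-day body weight; weights recorded weekly.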

[8] = Liver S9 fraction stability, cynomolgus monkey; type: in vitro ADME; details: 2 μM, 1.0 mg/ml S9 protein, 37° C.
Experimental: as §1

SMILES: C=C1CC[C@@]2(O)C3Cc4ccc(OCOC(=O)OCCCCCCCCCCCC)c5c4[C@@]2(CCN3CC2CC2)[C@H]1O5 [Compound 24, (((4aS,7aS,12bS)-3-(cyclopropylmethyl)-4a-hydroxy-7-methylene-2,3,4,4a,5,6,7,7a-octahydro-1H-4,12-methanobenzofuro[3,2-e]isoquinolin-9-yl)oxy)methyl dodecyl carbonate]
- Liver S9 Fraction Stability, % remaining at 60 minutes, Human [1]: 3.5%
- % remaining at time point in minutes, 0 min [2]: 100%
- % remaining at time point in minutes, 0 min ([3]; 0 min): 100%
- % remaining at time point in minutes, 15 min ([3]; 15 min): 94%
- % remaining at time point in minutes, 0 min [4]: 100%
- Liver S9 Fraction Stability, % remaining at 60 minutes, Dog [5]: 3.6%
- % remaining at time point in minutes, 0 min ([6]; 0 min): 100%
- % remaining at time point in minutes, 15 min ([6]; 15 min): 32%
- % remaining at time point in minutes, 480 min ([6]; 480 min): 8.2%
- % remaining at time point in minutes, 1440 min ([6]; 1440 min): 3%
- BT ([7]; dog D1501, 24 hr): 38.8
- BT ([7]; dog D1501, 96 hr): limb/BT: 39.2
- BT ([7]; dog D1501, 120 hr): 39.2
- BT ([7]; dog D1501, 144 hr): 39.6
- BT ([7]; dog D1501, 192 hr): calf/BT: 39.0
- BT ([7]; dog D1501, 216 hr): 8 * 5 cm/BT: 39.0
- BT ([7]; dog D1501, 240 hr): 8 * 5 cm/BT: 39.0
- BT ([7]; dog D1501, 264 hr): 6 * 5 cm/BT: 38.9
- BT ([7]; dog D1501, 288 hr): 6 * 5 cm/BT: 38.9
- BT ([7]; dog D1501, […]): 39.6
- BT ([7]; dog D1502, 96 hr): groin/red/BT: 38.3
- BT ([7]; dog D1502, 120 hr): groin/red/BT: 38.7
- BT ([7]; dog D1502, 144 hr): groin/red/BT: 38.3
- BT ([7]; dog D1502, 192 hr): groin/red/BT: 38.5
- BT ([7]; dog D1502, 216 hr): groin/red/BT: 38.4
- BT ([7]; dog D1502, 240 hr): leg/red/BT: 38.9
- BT ([7]; dog D1502, 264 hr): leg/red/BT: 38.3
- BT ([7]; dog D1502, 288 hr): leg/red/BT: 38.5
- BT ([7]; dog D1502, […]): groin/red/BT: 38.4
- BT ([7]; third dog (head prints D1502), 144 hr): 8 * 8 cm/BT: 39.5
- BT ([7]; third dog (head prints D1502), 192 hr): 8 * 8 cm/BT: 38.0
- BT ([7]; third dog (head prints D1502), 216 hr): 8 * 8 cm/BT: 38.8
- BT ([7]; third dog (head prints D1502), 240 hr): 8 * 8 cm/BT: 39.2
- BT ([7]; third dog (head prints D1502), 264 hr): 8 * 8 cm/BT: 38.9
- BT ([7]; third dog (head prints D1502), 288 hr): 8 * 8 cm/BT: 38.8
- BT ([7]; third dog (head prints D1502), […]): 8 * 8 cm/BT: 39.3
- Liver S9 Fraction Stability, % remaining at 60 minutes, Monkey [8]: 3%
